These results are taken from patent publication US8741853B2, “Mitochondria-targeting antioxidant therapeutics” (priority 2007, dated 2014).

Like-named read-outs stand apart in the source and are kept apart here.

Data set [1] concerns mitochondrial membrane potential (ΔΨm) in SHSY-5Y neuroblastoma cells. The experiment in a line: FRET-based ΔΨm assay (NAO/TMRE), compound alone and Ca2+-induced ΔΨm collapse. Type of data set: cell-based. The note with it: concentration not given; for B-C response, typical values: reference agents alone; for % Ca^2+ response score (comparison agents): reference agents.
Data set [2] shares this test system. Conditions: FRET-based ΔΨm assay, reference agent, cited from earlier work.
Data set [3] deals with human tumor cell lines FaDu and Jurkat, Ki-v-Ras-transformed Balb/c-3T3 murine mesenchymal cell line. Conditions: cited from earlier work.
The conditions of data set [4]: humans; cited from earlier work.
Data set [5] relates to caspase-3 activation in SHSY-5Y cells. Briefly: Caspase-3 activation induced by ethacrynic acid plus thapsigargin. Conditions: positive control, 24 hr ethacrynic acid/thapsigargin stress. Type of data set: cell-based. As to the method: The potential ability of test compound Nos. 1-10 individually to moderate caspase activation was therefore examined using SHSY-5Y cells, in accordance with the Dykens assay.
In the Dykens assay method, caspase activation is induced by 24 hr exposure to a combined stress of ethacrynic acid (25 to derivatize glutathione and induce oxidative stress, and thapsigargin (1 μM), to induce a chronic increase in cytosolic Ca^2+. Caspase activity is determined using a fluorogenic substrate, with rates normalized to cell number; and is expressed as % response of controls on every plate exposed to ethacrynate and thapsigargen in the absence of compound. Compound Nos. 1-10 at 10 μM were separately introduced for reaction at the same time as the ethycrynic acid/thapsigargin addition, and were present throughout the 24 hr incubation period.

Where [6] appears, read: read-out: EC50, prevent Ca^2+ uptake via uniporter inhibition.

`N#CC(C#N)=NNc1cccc(Cl)c1` [CCCP]: in data set [1], the “B-C response, typical values” is roughly −1800 RFU. For the same molecule, in data set [2] (read-out: EC50, collapse ΔΨm), the EC50 is 2000 nM.

Consider RU-360, for which the concentration for a half-maximal effect (EC50) in data set [2] (setting [6]) is 12 nM.

Consider `O=C(O)CCCCC1CCSS1` (stereo not drawn) [alpha-lipoic acid, 1,2-dithiolane-3-pentanoic acid], for which the “Apoptosis in tumor cell lines” value in data set [3] is listed as “induces apoptosis”. Moreover, in data set [4], the plasma half-life result is recorded as “less than 1 hour” and the “time to excretion, mainly in the urine” value was no more than 24 h.

For the molecule “IGF-1: positive control in caspase-3 activation assay”, in data set [5], the “Reduction of caspase activity” value is 64%.

Consider `Nc1ncnc2c1ncn2[C@@H]1O[C@H](COP(=O)(O)OP(=O)(O)O)[C@@H](O)[C@H]1O` [ADP], for which, in data set [2] (read-out: EC50, dissipate ΔΨm under physiological circumstances), the EC50 is 122000 nM.

Regarding `CO[C@H](C/C=C\C=C\CC/C=C/C[C@H](C)/C=C/C(=C\C(=O)O)CC(=O)O)/C(C)=C\C=C(/C)C(=O)O` [bongkrekate], in data set [1], the “B-C response, typical values” is given as roughly 600 RFU and the “% Ca^2+ response score (comparison agents)” value is 44%. Also, in data set [2] (read-out: EC50, inhibit Ca^2+-mediated ΔΨm loss), the EC50 was 77 nM.

On to `CC[C@H]1/C=C/C=C/C[C@@H](C)[C@H](O)[C@@](C)(O)C(=O)[C@@H](C)[C@H](O)[C@@H](C)C(=O)[C@@H](C)[C@H](O)[C@@H](C)/C=C/C(=O)O[C@@H]2[C@H](C)[C@H](CC1)O[C@]1(CC[C@H](C)[C@H](C[C@@H](C)O)O1)[C@H]2C` [oligomycin], for which the EC50 in data set [2] (read-out: EC50, hyperpolarize ΔΨm) was 26 nM.

As for `N.N.N.N.N.N.N.N.N.N.N.N.N.N.[Cl-].[Cl-].[Cl-].[Cl-].[Cl-].[Cl-].[O-2].[O-2].[Ru+3].[Ru+3].[Ru+4]` [ruthenium red], the “% Ca^2+ response score (comparison agents)” value in data set [1] amounted to 9%. In addition, the EC50 in data set [2] (setting [6]) was 270 nM.
